Data reported in PubChem BioAssay AID2060882 (Molecular Pharmacology Branch, DTP, NCI, 2025).
pIC50: −log10 of the molar value.

Tested on: 898857-211-R-J1-PDC complex spheroids, growth % test/control
Assay: Anticancer human tumor 898857-211-R-J1-PDC patient-derived melanoma cell line growth inhibition [RAS]
Conditions: for pIC50: curve of first compound; for viability, T/C: stronger effect = lower value
How it was run: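 Agents were tested in combination matrices in half-log decrements from a top concentration at or near clinical Cmax (10 microM if undetermined). Targets were multi-cell spheroids of tumour lines plus HUVEC and MSC stromal cells.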

[1] = second compound 0.0316 µM, first compound 0.0316 µM
[2] = second compound 0.0316 µM, first compound 0.1 µM
[3] = second compound 0.0316 µM, first compound 0.316 µM
[4] = second compound 0.0316 µM, first compound 1 µM
[5] = second compound 0.1 µM, first compound 0.0316 µM
[6] = second compound 0.1 µM, first compound 0.1 µM
[7] = second compound 0.1 µM, first compound 0.316 µM
[8] = second compound 0.1 µM, first compound 1 µM
[9] = second compound 0.316 µM, first compound 0.0316 µM
[10] = second compound 0.316 µM, first compound 0.1 µM
[11] = second compound 0.316 µM, first compound 0.316 µM
[12] = second compound 0.316 µM, first compound 1 µM
[13] = second compound 1 µM, first compound 0.0316 µM
[14] = second compound 1 µM, first compound 0.1 µM
[15] = second compound 1 µM, first compound 0.316 µM
[16] = second compound 1 µM, first compound 1 µM
[17] = second compound 3.16 µM, first compound 0.0316 µM
[18] = second compound 3.16 µM, first compound 0.1 µM
[19] = second compound 3.16 µM, first compound 0.316 µM
[20] = second compound 3.16 µM, first compound 1 µM
[21] = second compound 10 µM, first compound 0.0316 µM
[22] = second compound 10 µM, first compound 0.1 µM
[23] = second compound 10 µM, first compound 0.316 µM
[24] = second compound 10 µM, first compound 1 µM
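Note: spheroids exposed to compound for seven days before readout.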
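Throughout, for viability, T/C: 100% = DMSO vehicle control wells.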

Structure (SMILES): C=CC(=O)N1CCN(c2nc(OCC3CCCN3C)nc3c(F)c(-c4nc(N)cc(C)c4C(F)(F)F)c(Cl)cc23)C(C)C1 (stereo unspecified) + C#Cc1c(F)ccc2cc(O)cc(-c3ncc4c(N5CC6CCC(C5)N6)nc(OCC56CCCN5CC(F)C6)nc4c3F)c12
- pIC50 (second compound 0.0316 µM): < 6.00
- pIC50 (second compound 0.1 µM): < 6.00
- pIC50 (second compound 0.316 µM): < 6.00
- pIC50 (second compound 1 µM): < 6.00
- pIC50 (second compound 3.16 µM): < 6.00
- pIC50 (second compound 10 µM): > 8.50
- viability, T/C (second compound 0.0316 µM, first compound 0.00316 µM): 107%
- viability, T/C (second compound 0.0316 µM, first compound 0.01 µM): 92.9%
- viability, T/C [1]: 103%
- viability, T/C [2]: 103%
- viability, T/C [3]: 117%
- viability, T/C [4]: 118%
- viability, T/C (second compound 0.1 µM, first compound 0.00316 µM): 109%
- viability, T/C (second compound 0.1 µM, first compound 0.01 µM): 107%
- viability, T/C [5]: 109%
- viability, T/C [6]: 105%
- viability, T/C [7]: 126%
- viability, T/C [8]: 117%
- viability, T/C (second compound 0.316 µM, first compound 0.00316 µM): 95.8%
- viability, T/C (second compound 0.316 µM, first compound 0.01 µM): 91.4%
- viability, T/C [9]: 100%
- viability, T/C [10]: 96%
- viability, T/C [11]: 114%
- viability, T/C [12]: 129%
- viability, T/C (second compound 1 µM, first compound 0.00316 µM): 104%
- viability, T/C (second compound 1 µM, first compound 0.01 µM): 102%
- viability, T/C [13]: 101%
- viability, T/C [14]: 104%
- viability, T/C [15]: 105%
- viability, T/C [16]: 98.9%
- viability, T/C (second compound 3.16 µM, first compound 0.00316 µM): 99.4%
- viability, T/C (second compound 3.16 µM, first compound 0.01 µM): 93.5%
- viability, T/C [17]: 86.6%
- viability, T/C [18]: 106%
- viability, T/C [19]: 116%
- viability, T/C [20]: 87.3%
- viability, T/C (second compound 10 µM, first compound 0.00316 µM): 56.5%
- viability, T/C (second compound 10 µM, first compound 0.01 µM): 39.5%
- viability, T/C [21]: 41.1%
- viability, T/C [22]: 50.5%
- viability, T/C [23]: 21.3%
- viability, T/C [24]: 1.25%

Structure (SMILES): CC(=O)OC12COC1CC(O)C1(C)C(=O)C(O)C3=C(C)C(OC(=O)C(O)C(NC(=O)OC(C)(C)C)c4ccccc4)CC(O)(C(OC(=O)c4ccccc4)C21)C3(C)C (stereo unspecified) + C#Cc1c(F)ccc2cc(O)cc(-c3ncc4c(N5CC6CCC(C5)N6)nc(OCC56CCCN5CC(F)C6)nc4c3F)c12
- pIC50 (second compound 0.0316 µM): > 7.50
- pIC50 (second compound 0.1 µM): > 7.50
- pIC50 (second compound 0.316 µM): > 7.50
- pIC50 (second compound 1 µM): > 7.50
- pIC50 (second compound 3.16 µM): > 7.50
- pIC50 (second compound 10 µM): > 7.50
- viability, T/C [1]: 12%
- viability, T/C [2]: 12.8%
- viability, T/C [3]: 12.1%
- viability, T/C [4]: 16%
- viability, T/C (second compound 0.0316 µM, first compound 3.16 µM): 26.6%
- viability, T/C (second compound 0.0316 µM, first compound 10 µM): 27.4%
- viability, T/C [5]: 13%
- viability, T/C [6]: 12.1%
- viability, T/C [7]: 14.1%
- viability, T/C [8]: 17.1%
- viability, T/C (second compound 0.1 µM, first compound 3.16 µM): 25.5%
- viability, T/C (second compound 0.1 µM, first compound 10 µM): 21.1%
- viability, T/C [9]: 16.4%
- viability, T/C [10]: 15.8%
- viability, T/C [11]: 12.1%
- viability, T/C [12]: 17.7%
- viability, T/C (second compound 0.316 µM, first compound 3.16 µM): 25.2%
- viability, T/C (second compound 0.316 µM, first compound 10 µM): 21.3%
- viability, T/C [13]: 14.2%
- viability, T/C [14]: 12.7%
- viability, T/C [15]: 12.8%
- viability, T/C [16]: 16.5%
- viability, T/C (second compound 1 µM, first compound 3.16 µM): 15.7%
- viability, T/C (second compound 1 µM, first compound 10 µM): 24.7%
- viability, T/C [17]: 13.3%
- viability, T/C [18]: 16.7%
- viability, T/C [19]: 16.7%
- viability, T/C [20]: 20.4%
- viability, T/C (second compound 3.16 µM, first compound 3.16 µM): 24.6%
- viability, T/C (second compound 3.16 µM, first compound 10 µM): 27.6%
- viability, T/C [21]: 7.03%
- viability, T/C [22]: 9%
- viability, T/C [23]: 5.98%
- viability, T/C [24]: 9.12%
- viability, T/C (second compound 10 µM, first compound 3.16 µM): 7.68%
- viability, T/C (second compound 10 µM, first compound 10 µM): 7.34%

Structure (SMILES): CCc1c2c(nc3ccc(O)cc13)-c1cc3c(c(=O)n1C2)COC(=O)[C@]3(O)CC + C#Cc1c(F)ccc2cc(O)cc(-c3ncc4c(N5CC6CCC(C5)N6)nc(OCC56CCCN5CC(F)C6)nc4c3F)c12
- pIC50 (second compound 0.0316 µM): 8.33
- pIC50 (second compound 0.1 µM): 8.34
- pIC50 (second compound 0.316 µM): 8.29
- pIC50 (second compound 1 µM): 8.31
- pIC50 (second compound 3.16 µM): 8.27
- pIC50 (second compound 10 µM): 8.98
- viability, T/C (second compound 0.0316 µM, first compound 0.000949 µM): 109%
- viability, T/C (second compound 0.0316 µM, first compound 0.003 µM): 63.3%
- viability, T/C (second compound 0.0316 µM, first compound 0.00949 µM): 30%
- viability, T/C (second compound 0.0316 µM, first compound 0.03 µM): 11.4%
- viability, T/C (second compound 0.0316 µM, first compound 0.0949 µM): 9.62%
- viability, T/C (second compound 0.0316 µM, first compound 0.3 µM): 9.76%
- viability, T/C (second compound 0.1 µM, first compound 0.000949 µM): 94.1%
- viability, T/C (second compound 0.1 µM, first compound 0.003 µM): 61.4%
- viability, T/C (second compound 0.1 µM, first compound 0.00949 µM): 30.9%
- viability, T/C (second compound 0.1 µM, first compound 0.03 µM): 10.3%
- viability, T/C (second compound 0.1 µM, first compound 0.0949 µM): 8.95%
- viability, T/C (second compound 0.1 µM, first compound 0.3 µM): 8.77%
- viability, T/C (second compound 0.316 µM, first compound 0.000949 µM): 93%
- viability, T/C (second compound 0.316 µM, first compound 0.003 µM): 67.7%
- viability, T/C (second compound 0.316 µM, first compound 0.00949 µM): 30.2%
- viability, T/C (second compound 0.316 µM, first compound 0.03 µM): 8.72%
- viability, T/C (second compound 0.316 µM, first compound 0.0949 µM): 7.89%
- viability, T/C (second compound 0.316 µM, first compound 0.3 µM): 9.18%
- viability, T/C (second compound 1 µM, first compound 0.000949 µM): 86.7%
- viability, T/C (second compound 1 µM, first compound 0.003 µM): 62.4%
- viability, T/C (second compound 1 µM, first compound 0.00949 µM): 33.9%
- viability, T/C (second compound 1 µM, first compound 0.03 µM): 11.3%
- viability, T/C (second compound 1 µM, first compound 0.0949 µM): 8.52%
- viability, T/C (second compound 1 µM, first compound 0.3 µM): 8.89%
- viability, T/C (second compound 3.16 µM, first compound 0.000949 µM): 87.2%
- viability, T/C (second compound 3.16 µM, first compound 0.003 µM): 71.3%
- viability, T/C (second compound 3.16 µM, first compound 0.00949 µM): 29%
- viability, T/C (second compound 3.16 µM, first compound 0.03 µM): 10.9%
- viability, T/C (second compound 3.16 µM, first compound 0.0949 µM): 9.14%
- viability, T/C (second compound 3.16 µM, first compound 0.3 µM): 8.78%
- viability, T/C (second compound 10 µM, first compound 0.000949 µM): 51.6%
- viability, T/C (second compound 10 µM, first compound 0.003 µM): 29.9%
- viability, T/C (second compound 10 µM, first compound 0.00949 µM): 15%
- viability, T/C (second compound 10 µM, first compound 0.03 µM): 10.1%
- viability, T/C (second compound 10 µM, first compound 0.0949 µM): 9.3%
- viability, T/C (second compound 10 µM, first compound 0.3 µM): 7.33%
